The pIC50 is the negative decadic logarithm of the IC50, by convention in mol/L. Read a low pIC50 as a large IC50.

pIC50: −log10 of the molar value.

The target in the test is T1, PDE6 (Bos taurus, UniProt P11541+P23439).
T1 construct: tissue Tokyo Shibaura Zoki; host or cells: bovine retina, rod outer segments, gel filtration, then limited trypsin treatment
T1 sequence (P11541 2-856 limits assumed): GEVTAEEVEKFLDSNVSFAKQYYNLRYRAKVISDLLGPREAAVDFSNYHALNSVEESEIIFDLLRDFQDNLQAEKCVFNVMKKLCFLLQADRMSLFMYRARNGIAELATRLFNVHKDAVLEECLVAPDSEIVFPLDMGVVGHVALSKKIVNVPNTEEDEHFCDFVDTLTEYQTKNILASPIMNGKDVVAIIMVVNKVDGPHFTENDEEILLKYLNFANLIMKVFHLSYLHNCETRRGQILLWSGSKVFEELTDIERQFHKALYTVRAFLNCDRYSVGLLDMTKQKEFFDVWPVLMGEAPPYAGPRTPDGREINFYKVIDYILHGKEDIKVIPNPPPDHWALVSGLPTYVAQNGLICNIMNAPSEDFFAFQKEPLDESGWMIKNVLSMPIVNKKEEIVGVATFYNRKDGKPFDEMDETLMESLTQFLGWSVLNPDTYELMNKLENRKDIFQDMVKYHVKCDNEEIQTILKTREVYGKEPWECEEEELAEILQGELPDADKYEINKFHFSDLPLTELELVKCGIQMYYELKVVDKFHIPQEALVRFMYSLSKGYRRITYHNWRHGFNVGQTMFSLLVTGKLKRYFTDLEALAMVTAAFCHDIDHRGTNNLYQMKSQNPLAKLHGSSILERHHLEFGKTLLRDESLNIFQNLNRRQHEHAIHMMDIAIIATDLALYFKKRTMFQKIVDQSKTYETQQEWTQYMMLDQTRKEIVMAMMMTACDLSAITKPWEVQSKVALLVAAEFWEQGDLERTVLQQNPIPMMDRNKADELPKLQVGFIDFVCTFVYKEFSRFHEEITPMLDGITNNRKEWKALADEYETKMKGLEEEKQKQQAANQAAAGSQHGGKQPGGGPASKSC
T1 sequence (P23439 2-850 limits assumed): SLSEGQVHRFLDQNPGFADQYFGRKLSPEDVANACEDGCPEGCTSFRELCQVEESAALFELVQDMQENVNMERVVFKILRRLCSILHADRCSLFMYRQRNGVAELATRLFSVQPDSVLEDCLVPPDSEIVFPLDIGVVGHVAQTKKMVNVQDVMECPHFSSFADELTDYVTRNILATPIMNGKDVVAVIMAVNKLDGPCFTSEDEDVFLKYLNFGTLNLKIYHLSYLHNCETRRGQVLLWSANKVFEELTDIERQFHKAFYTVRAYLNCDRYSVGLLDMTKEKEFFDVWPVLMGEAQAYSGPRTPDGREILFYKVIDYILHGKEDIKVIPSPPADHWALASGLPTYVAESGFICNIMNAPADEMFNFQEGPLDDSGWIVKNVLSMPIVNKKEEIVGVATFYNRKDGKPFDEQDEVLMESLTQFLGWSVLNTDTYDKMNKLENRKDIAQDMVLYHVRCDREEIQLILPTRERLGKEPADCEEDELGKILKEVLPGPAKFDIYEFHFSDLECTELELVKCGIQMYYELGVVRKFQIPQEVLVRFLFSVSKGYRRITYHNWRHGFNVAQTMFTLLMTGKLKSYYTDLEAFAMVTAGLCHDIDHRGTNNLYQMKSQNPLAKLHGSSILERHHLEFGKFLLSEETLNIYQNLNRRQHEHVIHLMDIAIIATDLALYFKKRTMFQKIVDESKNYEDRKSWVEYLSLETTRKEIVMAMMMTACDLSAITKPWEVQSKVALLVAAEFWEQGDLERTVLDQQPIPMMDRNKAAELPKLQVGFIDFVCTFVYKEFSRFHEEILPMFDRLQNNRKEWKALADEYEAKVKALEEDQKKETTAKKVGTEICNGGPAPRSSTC
Briefly: PDE assay, trypsin-activated PDE6 from bovine retina. Format: biochemical. The settings on record: substrate about 12 nM [3H]-cGMP and 10 μM cGMP. How it is done:
From the bovine eyeball, purchased from Tokyo Shibaura Zoki, co., Ltd., retina (pale red colored) which is present as a membrane on the pigmented layer was collected and stored at −70° C.
To buffer A [16 mM MOPS-NaOH, pH7.5, 1.6 mM dithiothreitol, 8 mM magnesium chloride, 96 mM potassium chloride, 48 mM sodium chloride, 0.16 mM phenylmethylsulfonyl fluoride, 10 μM pepstatin A, 10 μM leupeptin] (20 ml), sucrose (6 g) was dissolved. Added thereto was the above-mentioned retina (about 7 g), and the mixture was stirred for 30 minutes while cutting the retina by scissors. The mixture was applied to centrifugation at 2000 rpm, at 4° C. for 5 minutes and the supernatant was collected. To the resultant residue was added buffer B[10 mM MOPS, pH7.5, 1 mM dithiothreitol, 5 mM magnesium chloride, 60 mM potassium chloride, 30 mM sodium chloride, 0.1 mM phenylmethylsulfonyl fluoride, 10 μM pepstatin A, 10 μM leupeptin] (40 ml), and the mixture was stirred by rolling several times. This was applied to centrifugation and the resultant supernatant was combined with the above obtained supernatant. This is further centrifuged at 7000 rpm, at 4° C., for 5 minutes, and the precipitates were obtained as crude rod outer segment (ROS). […]
Further, PDE assay was carried out using the above-eluted fractions as an enzyme solution, and cGMP-hydrolyzing activity was measured. […]

Regarding `COc1ccc(-c2cc(N3CCCC3)nc(/C=C/c3nc(-n4ccnc4)c4ccccc4n3)n2)cc1OC` [Compound A, 2-{(E)-2-[4-(1-imidazolyl)-quinazolin-2-yl]}ethenyl-4-(3,4-dimethoxy)phenyl-6-(pyrrolidin-1-yl)pyrimidine], the pIC50 was 6.54.

The values are drawn from US8338420B1, “Treatment of Parkinson's disease and enhancement of dopamine signal using PDE 10 inhibitor” (Mitsubishi Tanabe Pharma Corporation, priority 2002, dated 2012).
